Measured values as given in patent US20260008760A1, “DIPEPTIDYL PEPTIDASE 1 INHIBITORS AND USES THEREOF” (Insmed Incorporated, priority 2024, published 2026).
Where two headings read alike, the source gives them in different places.

Tests used:
DPP1 in HL-60 cells = DPP1 in HL-60 cells (Homo sapiens, UniProt P53634); assay: DPP1 Cell IC50 assay; assay type: cell-based; set-up: host or cells: HL-60 cells; conditions: 60 min pre-incubation, H-Gly-Phe-AFC substrate, average of n runs
Procedure, shortened: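 HL-60 cells in PBS (5×10^5 live cells per mL) pre-incubated with compound (0.5% DMSO) 60 min at 37° C, 5% CO2, then H-Gly-Phe-AFC substrate (500 μM stock) added for 30 min. Fluorescence at 400/505 nm; % inhibition vs vehicle wells, IC50 from four-parameter logistic fit.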

human DPP1 enzyme = human DPP1 enzyme (Homo sapiens, UniProt P53634); assay: Human DPP1 Enzyme IC50 Assay; assay type: biochemical; set-up: was first proteolytically processed into its mature form using recombinant human cathepsin L; purchased R&D Systems
Procedure, shortened: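 Recombinant human DPP1, pre-activated with cathepsin L (pH 4.5), was preincubated with compound 10 min at 37 °C in MES pH 6.0, 50 mM NaCl, 5 mM DTT, 1% DMSO. Cleavage of 400 μM (final) H-Gly-Arg-AMC followed by fluorescence (350/450 nm) over 90 min at 37 °C; IC50 from four-parameter logistic fit versus no-compound control.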

[1] = read-out: Avg. IC50 (DPP1 Cell IC50 value ranges)
[2] = activated recombinant human DPP1, 400 μM H-Gly-Arg-AMC, 10 minutes pre-incubation at 37° C., pH 6.0, average of n runs, read-out: Avg. IC50 (Human DPP1 enzyme IC50 value ranges)
[3] = Avg. IC50 (DPP1 Cell IC50 value ranges)

DPP1 in HL-60 cells, sequence (P53634 25-463): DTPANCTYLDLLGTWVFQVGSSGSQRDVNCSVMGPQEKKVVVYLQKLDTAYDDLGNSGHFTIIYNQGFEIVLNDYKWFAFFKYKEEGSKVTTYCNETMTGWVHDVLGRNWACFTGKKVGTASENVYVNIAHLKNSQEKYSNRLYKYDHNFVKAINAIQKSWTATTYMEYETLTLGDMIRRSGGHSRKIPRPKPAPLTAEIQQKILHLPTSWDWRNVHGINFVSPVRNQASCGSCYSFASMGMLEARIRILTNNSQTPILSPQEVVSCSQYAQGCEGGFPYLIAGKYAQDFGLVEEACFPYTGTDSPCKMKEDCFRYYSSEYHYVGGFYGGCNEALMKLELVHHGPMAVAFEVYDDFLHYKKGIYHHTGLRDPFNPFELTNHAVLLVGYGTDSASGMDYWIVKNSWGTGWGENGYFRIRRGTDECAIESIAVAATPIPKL
human DPP1 enzyme, sequence (P53634 25-134 limits assumed): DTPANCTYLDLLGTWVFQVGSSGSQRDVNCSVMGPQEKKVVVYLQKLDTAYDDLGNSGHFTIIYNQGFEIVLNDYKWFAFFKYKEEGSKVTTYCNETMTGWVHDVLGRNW
human DPP1 enzyme, sequence (P53634 231-394 limits assumed): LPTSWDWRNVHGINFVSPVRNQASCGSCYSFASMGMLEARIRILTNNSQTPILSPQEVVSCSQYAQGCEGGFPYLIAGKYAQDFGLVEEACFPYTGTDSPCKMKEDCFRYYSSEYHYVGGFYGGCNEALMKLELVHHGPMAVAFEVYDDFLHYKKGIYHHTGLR
human DPP1 enzyme, sequence (P53634 395-463 limits assumed): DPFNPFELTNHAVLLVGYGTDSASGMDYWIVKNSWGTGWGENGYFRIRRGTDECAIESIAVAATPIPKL

Row | Structure (SMILES) | IC50 (DPP1 in HL-60 cells; [1]) [nM] | IC50 (human DPP1 enzyme; [2]) [nM] | IC50 (DPP1 in HL-60 cells; [3]) [nM] | IC50 (human DPP1 enzyme) [nM]
1 | CN1C(=O)CCc2cc(-c3ccc(C[C@@H](C#N)NC(=O)[C@@H]4CNCC[C@@H](F)CO4)c(F)c3)ccc21 [Compound A155] | 1 to 2.5 | 5 to 15 | – | –
2 | COC1CNC[C@@H](C(=O)N[C@H](C#N)Cc2ccc(-c3ccc4c(F)nn(C)c4c3)cc2)OC1 (some centres unmarked) [Compound A158] | < 1 | < 5 | – | –
3 | C[C@@H]1NC[C@@H](C(=O)N[C@H](C#N)Cc2ccc(-c3ccc4c(F)nn(C)c4c3)cc2)OC[C@@H]1O [Compound A160] | 1 to 2.5 | 5 to 15 | – | –
4 | Cn1nc(F)c2ccc(-c3ccc(C[C@@H](C#N)NC(=O)[C@@H]4CNCC[C@@H](F)CO4)cc3)cc21 [Compound A161] | > 2.5 | > 15 | – | –
5 | COC1CNC[C@@H](C(=O)N[C@H](C#N)Cc2ccc(-c3ccc4c(F)nn(C)c4c3)cc2F)OC1 (some centres unmarked) [Compound A164] | < 1 | < 5 | – | –
6 | CO[C@H]1CCO[C@H](C(=O)N[C@H](C#N)Cc2ccc(-c3ccc4c(F)nn(C)c4c3)cc2F)CNC1 [Compound A165] | 1 to 2.5 | 5 to 15 | – | –
7 | C[C@@H]1NC[C@@H](C(=O)N[C@H](C#N)Cc2ccc(-c3ccc4c(F)nn(C)c4c3)cc2F)OC[C@@H]1O [Compound A166] | 1 to 2.5 | 5 to 15 | – | –
8 | COC1CNC[C@@H](C(=O)N[C@H](C#N)Cc2cnc(-c3ccc4c(F)nn(C)c4c3)s2)OC1 (some centres unmarked) [Compound A169] | < 1 | < 5 | – | –
9 | C[C@@H]1NC[C@@H](C(=O)N[C@H](C#N)Cc2cnc(-c3ccc4c(F)nn(C)c4c3)s2)OC[C@@H]1O [Compound A171] | > 2.5 | > 15 | – | –
10 | N#C[C@H](Cc1ccc2c(c1)OCc1ccc(C3CCNC3)cc1-2)NC(=O)[C@@H]1CNCCCO1 (stereo partly drawn) [Compound B1, (2S)—N-[(1S)-1-cyano-2-[9-(pyrrolidin-3-yl)-6H-benzo[c]chromen-3-yl]ethyl]-1,4-oxazepane-2-carboxamide] | – | – | > 2.5 | > 15
11 | N#Cc1ccc2c(c1)COc1c-2ccc(CC(C#N)NC(=O)[C@@H]2CNCCCO2)c1F (stereo partly drawn) [Compound B4, (2S)—N-(1-cyano-2-{8-cyano-4-fluoro-6H-benzo[c]chromen-3-yl}ethyl)-1,4-oxazepane-2-carboxamide] | – | – | > 2.5 | > 15
12 | N#C[C@@H](Cc1cc2c(cc1F)-c1cc(C3COC3)c(F)cc1CO2)NC(=O)[C@@H]1CNCCCCO1 [Compound B10-A] | > 2.5 | > 15 | – | –
13 | CO[C@@H]1CCNC[C@@H](C(=O)N[C@H](C#N)Cc2cc3c(cc2F)-c2cc(C4COC4)c(F)cc2CO3)OC1 [Compound B12, (2S,7R)—N-{1-cyano-2-[2,8-difluoro-9-(oxetan-3-yl)-6H-benzo[c]chromen-3-yl]ethyl}-7-methoxy-1,4-oxazocane-2-carboxamide] | 1 to 2.5 | < 5 | – | –
14 | N#C[C@H](Cc1cc2c(cc1F)-c1ccc(F)cc1CO2)NC(=O)[C@@H]1CNCCCO1 [Compound B35] | – | – | > 2.5 | > 15
15 | Cn1c(=O)oc2cc3c(cc21)-c1cc(F)c(CC(C#N)NC(=O)[C@@H]2CNCCCO2)cc1OC3 (stereo partly drawn) [Compound C1, (2S)—N-(1-cyano-2-{4-fluoro-15-methyl-14-oxo-8,13-dioxa-15-azatetracyclo[8.7.0.0^{2,7}0.0^{12,16}]heptadeca-1(10),2(7),3,5,11,16-hexaen-5-yl}ethyl)-1,4-oxazepane-2-carboxamide] | > 2.5 | < 5 | – | –
16 | Cn1c(=O)oc2cc3c(cc21)-c1cc(F)c(C[C@H](C#N)NC(=O)[C@@H]2CNCCCO2)cc1OC3 [Compound C1-A] | > 2.5 | > 15 | – | –
17 | Cn1c(=O)oc2cc3c(cc21)-c1cc(F)c(C[C@@H](C#N)NC(=O)[C@@H]2CNCCCO2)cc1OC3 [Compound C1-B] | 1 to 2.5 | < 5 | – | –

Row | Structure (SMILES) | IC50 (DPP1 in HL-60 cells; [1]) [nM] | IC50 (human DPP1 enzyme; [2]) [nM] | IC50 (DPP1 in HL-60 cells; [3]) [nM] | IC50 (human DPP1 enzyme) [nM]
18 | Cn1c(=O)oc2ccc3c(c21)COc1cc(C[C@@H](C#N)NC(=O)[C@@H]2CNCCCO2)c(F)cc1-3 [Compound C2-A] | 1 to 2.5 | > 15 | – | –
19 | Cn1c(=O)oc2cc3c(cc21)-c1cc(F)c(CC(C#N)NC(=O)[C@@H]2CNCCCCO2)cc1OC3 (stereo partly drawn) [Compound C5, (2S)—N-[(1S)-1-cyano-2-{4-fluoro-15-methyl-14-oxo-8,13-dioxa-15-azatetracyclo[8.7.0.0^{2,7}0.0^{12,16}]heptadeca-1(10),2,4,6,11,16-hexaen-5-yl}ethyl]-1,4-oxazocane-2-carboxamide] | 1 to 2.5 | < 5 | – | –
20 | Cc1cn2c3c(cc2c(C)n1)-c1cc(F)c(C[C@@H](C#N)NC(=O)[C@@H]2CNCCCO2)cc1OC3 [Compound C10] | 1 to 2.5 | > 15 | – | –
21 | Cn1ncc2cc3c(cc21)-c1cc(F)c(C[C@@H](C#N)NC(=O)[C@@H]2CNCCCO2)cc1OC3 [Compound C33] | 1 to 2.5 | < 5 | – | –
22 | Cn1nnc2cc3c(cc21)-c1cc(F)c(C[C@@H](C#N)NC(=O)[C@@H]2CNCCCO2)cc1OC3 [Compound C34] | 1 to 2.5 | < 5 | – | –
23 | N#C[C@H](Cc1ccc(-c2ccc(-c3nnc(N)s3)o2)cc1)NC(=O)[C@@H]1CNCCCO1 [Compound D1, (2S)—N-[(1S)-2-{4-[5-(5-amino-1,3,4-thiadiazol-2-yl)furan-2-yl]phenyl}-1-cyanoethyl]-1,4-oxazepane-2-carboxamide] | > 2.5 | > 15 | – | –
24 | N#C[C@H](Cc1ccc(-c2csc(-c3nnc(N)o3)c2)cc1)NC(=O)[C@@H]1CNCCCO1 [Compound D2, (2S)—N-[(1S)-2-{4-[5-(5-amino-1,3,4-oxadiazol-2-yl)thiophen-3-yl]phenyl}-1-cyanoethyl]-1,4-oxazepane-2-carboxamide] | > 2.5 | > 15 | – | –
25 | N#C[C@H](Cc1ccc(-c2cnn([C@@H]3CCOC3)c2)cc1)NC(=O)[C@@H]1CNCCCO1 [Compound D4, (2S)—N-[(1S)-1-cyano-2-(4-{1-[(3R)-oxolan-3-yl]pyrazol-4-yl}phenyl)ethyl]-1,4-oxazepane-2-carboxamide] | > 2.5 | > 15 | – | –
26 | N#C[C@H](Cc1ccc(NC(=O)c2csc(-c3cscn3)n2)cc1)NC(=O)[C@@H]1CNCCCO1 [Compound D7, (2S)—N-[(1S)-1-cyano-2-{4-[2-(1,3-thiazol-4-yl)-1,3-thiazole-4-amido]phenyl}ethyl]-1,4-oxazepane-2-carboxamide] | > 2.5 | > 15 | – | –
27 | CCc1sc(-c2ccc(C[C@@H](C#N)NC(=O)[C@@H]3CNCCCO3)cc2)nc1-c1cnn(C)c1 [Compound D8, (2S)—N-[(1S)-1-cyano-2-{4-[5-ethyl-4-(1-methylpyrazol-4-yl)-1,3-thiazol-2-yl]phenyl}ethyl]-1,4-oxazepane-2-carboxamide] | > 2.5 | > 15 | – | –
28 | Cc1sc(-c2ccc(C[C@@H](C#N)NC(=O)[C@@H]3CNCCCO3)cc2)nc1-c1cc[nH]c(=O)c1 [Compound D9, (2S)—N-[(1S)-1-cyano-2-{4-[5-methyl-4-(2-oxo-1H-pyridin-4-yl)-1,3-thiazol-2-yl]phenyl}ethyl]-1,4-oxazepane-2-carboxamide] | > 2.5 | > 15 | – | –
29 | CCCCOCCn1c(=O)oc2ccc(-c3ccc(C[C@@H](C#N)NC(=O)[C@@H]4CNC(C)C(OC)CO4)c(F)c3)cc21 (stereo partly drawn) [Compound E1, (2S)—N-[(1S)-2-{4-[3-(2-butoxyethyl)-2-oxo-1,3-benzoxazol-5-yl]-2-fluorophenyl}-1-cyanoethyl]-6-methoxy-5-methyl-1,4-oxazepane-2-carboxamide] | 1 to 2.5 | < 5 | – | –
30 | COC1CO[C@H](C(=O)N[C@H](C#N)Cc2ccc(-c3ccc4c(c3)C3(CC4)CCN(C)CC3)cc2F)CNC1C (stereo partly drawn) [Compound E6, (2S)—N-[(1S)-1-cyano-2-(2-fluoro-4-{1′-methyl-2,3-dihydrospiro[indene-1,4′-piperidin]-6-yl}phenyl)ethyl]-6-methoxy-5-methyl-1,4-oxazepane-2-carboxamide] | > 2.5 | < 5 | – | –
31 | CO[C@H]1CCO[C@H](C(=O)N[C@H](C#N)Cc2ccc(-c3ccc(C#N)cc3)cc2)CNC1 [Compound F1, (2S,6S)—N-[(1S)-1-cyano-2-{4′-cyano-[1,1′-biphenyl]-4-yl}ethyl]-6-methoxy-1,4-oxazocane-2-carboxamide] | > 2.5 | > 15 | – | –
32 | CCCCOCCn1c(=O)oc2ccc(-c3ccc(C[C@@H](C#N)NC(=O)[C@@H]4CNC[C@@H](OC)CCO4)cc3)cc21 [Compound F2, (2S,6S)—N-[(1S)-2-{4-[3-(2-butoxyethyl)-2-oxo-1,3-benzoxazol-5-yl]phenyl}-1-cyanoethyl]-6-methoxy-1,4-oxazocane-2-carboxamide] | > 2.5 | > 15 | – | –
33 | CO[C@H]1CCO[C@H](C(=O)N[C@H](C#N)Cc2ccc(-c3ccc4oc(=O)n(C)c4c3)s2)CNC1 [Compound F3, (2S,6S)—N-[(1S)-1-cyano-2-[5-(3-methyl-2-oxo-1,3-benzoxazol-5-yl)thiophen-2-yl]ethyl]-6-methoxy-1,4-oxazocane-2-carboxamide] | > 2.5 | > 15 | – | –
34 | CO[C@@H]1CCNC[C@@H](C(=O)N[C@H](C#N)Cc2ccc(-c3ccc4cnn(C)c4c3)cc2F)OC1 [Compound H7, (2S,7R)—N-[(1S)-1-cyano-2-[2-fluoro-4-(1-methylindazol-6-yl)phenyl]ethyl]-7-methoxy-1,4-oxazocane-2-carboxamide] | < 1 | < 5 | – | –
